Tested on: normal human lung fibroblasts
Assay: Ribosomal profiling: translational efficiency in TGFβ-treated fibroblasts
Assay type: cell-based
Conditions: TGFβ-treated fibroblasts
Experimental: Ribosomal profiling allows for measurement of changes in transcription and translation on a genome-wide basis accompanying TGFβ-dependent transformation of fibroblasts to myofibroblasts. Ribosomal profiles of the TGFβ-treated fibroblasts from Example 1 (about 6×10^6 cells/10 cm plate) were prepared and analyzed for changes in translational efficiencies with respect to potential disease-associated cellular changes accompanying this TGFβ-induced transformation.
Briefly, cells were washed with cold PBS supplemented with cycloheximide and lysed with 1× mammalian cell lysis buffer for 10 minutes on ice. Lysates were clarified by centrifugation for 10 minutes at 14,000 rpm and supernatants were collected. Cell lysates were processed to generate ribosomal protected fragments and total mRNA according to the instructions included with the ARTseq Ribosome Profiling Kit (Illumina, San Diego, Calif.). Sequencing of total RNA (RNA) and of ribosome-protected fragments of RNA (RPF) was carried out using RNA-Seq methodology according to the manufacturer's instructions (Illumina). To analyze the ribosomal profiles, RNA-Seq reads were processed with tools from the FASTX-Toolkit (fastq_quality_trimmer, fastx_clipper and fastx_trimmer). Unprocessed and processed reads were evaluated for a variety of quality measures using FastQC, and processed reads were mapped to the human genome using TopHat (see, e.g., Trapnell et al., Bioinformatics 25:1105, 2009). Gene-by-gene assessment of the number of fragments strictly and uniquely mapping to the coding region of each gene was conducted using HTSeq-count, a component of the HTSeq package. […] Genes with low counts in either RPF or RNA were excluded from differential analyses. Pathway and network analyses of differential data were conducted using Ingenuity Pathway Analysis (IPA).

With CC(C=CC(=O)NO)=CC(C)C(=O)c1ccc(N(C)C)cc1 (stereo not drawn) [TSA, 7-[4-(dimethylamino)phenyl]-N-hydroxy-4,6-dimethyl-7-oxohepta-2,4-dienamide] the “effect in renormalizing the translational profile of the gene” value (gene RPS6 (ENSG00000137154)) was “− (− = <0.9)”, the “effect in renormalizing the translational profile of the gene” value (gene RPS6KA5 (ENSG00000100784)) was “− (− = <0.9)” and the “effect in renormalizing the translational profile of the gene” value (gene RPS7 (ENSG00000171863)) was “− (− = <0.9)”. For the same molecule, the “effect in renormalizing the translational profile of the gene” value (gene RPS8 (ENSG00000142937)) was “− (− = <0.9)”, the “effect in renormalizing the translational profile of the gene” value (gene RPS9 (ENSG00000170889)) was “− (− = <0.9)” and the “effect in renormalizing the translational profile of the gene” value (gene RPS10 (ENSG00000124614)) was “− (− = <0.9)”. For the same molecule, the “effect in renormalizing the translational profile of the gene” value (gene RPS11 (ENSG00000142534)) was “− (− = <0.9)”, the “effect in renormalizing the translational profile of the gene” value (gene RPS12 (ENSG00000112306)) was “− (− = <0.9)” and the “effect in renormalizing the translational profile of the gene” value (gene RPS13 (ENSG00000110700)) was “− (− = <0.9)”. For the same molecule, the “effect in renormalizing the translational profile of the gene” value (gene RPS14 (ENSG00000164587)) was “− (− = <0.9)”, the “effect in renormalizing the translational profile of the gene” value (gene RPS15 (ENSG00000115268)) was “− (− = <0.9)” and the “effect in renormalizing the translational profile of the gene” value (gene RPS15A (ENSG00000134419)) was “− (− = <0.9)”. For the same molecule, the “effect in renormalizing the translational profile of the gene” value (gene RPS16 (ENSG00000105193)) was “− (− = <0.9)”, the “effect in renormalizing the translational profile of the gene” value (gene RPS18 (ENSG00000231500)) was “− (− = <0.9)” and the “effect in renormalizing the translational profile of the gene” value (gene RPS19 (ENSG00000105372)) was “− (− = <0.9)”. The “effect in renormalizing the translational profile of the gene” value (gene RPS20 (ENSG00000008988)) was “− (− = <0.9)”, the “effect in renormalizing the translational profile of the gene” value (gene RPS21 (ENSG00000171858)) was “− (− = <0.9)” and the “effect in renormalizing the translational profile of the gene” value (gene RPS23 (ENSG00000186468)) was “− (− = <0.9)”. The “effect in renormalizing the translational profile of the gene” value (gene RPS24 (ENSG00000138326)) was “− (− = <0.9)”, the “effect in renormalizing the translational profile of the gene” value (gene RPS25 (ENSG00000118181)) was “− (− = <0.9)” and the “effect in renormalizing the translational profile of the gene” value (gene RPS26 (ENSG00000197728)) was “− (− = <0.9)”. The “effect in renormalizing the translational profile of the gene” value (gene RPS27 (ENSG00000177954)) was “− (− = <0.9)”, the “effect in renormalizing the translational profile of the gene” value (gene RPS27A (ENSG00000143947)) was “− (− = <0.9)” and the “effect in renormalizing the translational profile of the gene” value (gene RPS28 (ENSG00000233927)) was “− (− = <0.9)”. For the same molecule, the “effect in renormalizing the translational profile of the gene” value (gene RPS29 (ENSG00000213741)) was “− (− = <0.9)”, the “effect in renormalizing the translational profile of the gene” value (gene RPSA (ENSG00000168028)) was “− (− = <0.9)” and the “effect in renormalizing the translational profile of the gene” value (gene RTN2 (ENSG00000125744)) was “− (− = <0.9)”. The “effect in renormalizing the translational profile of the gene” value (gene SEMA3A (ENSG00000075213)) was “− (− = <0.9)”, the “effect in renormalizing the translational profile of the gene” value (gene SGIP1 (ENSG00000118473)) was “− (− = <0.9)” and the “effect in renormalizing the translational profile of the gene” value (gene SH3BGR (ENSG00000185437)) was “− (− = <0.9)”. For the same molecule, the “effect in renormalizing the translational profile of the gene” value (gene SHC3 (ENSG00000148082)) was “+ (+ = 0.9 to 1.5)”, the “effect in renormalizing the translational profile of the gene” value (gene SLC2A12 (ENSG00000146411)) was “− (− = <0.9)” and the “effect in renormalizing the translational profile of the gene” value (gene SLC7A7 (ENSG00000155465)) was “− (− = <0.9)”. The “effect in renormalizing the translational profile of the gene” value (gene SLC15A3 (ENSG00000110446)) was “++ (++ = 1.5 to 2.0)”, the “effect in renormalizing the translational profile of the gene” value (gene SLC25A6 (ENSG00000169100)) was “− (− = <0.9)” and the “effect in renormalizing the translational profile of the gene” value (gene SLC40A1 (ENSG00000138449)) was “+ (+ = 0.9 to 1.5)”. The “effect in renormalizing the translational profile of the gene” value (gene SMO (ENSG00000128602)) was “− (− = <0.9)”, the “effect in renormalizing the translational profile of the gene” value (gene SNRPA (ENSG00000077312)) was “− (− = <0.9)” and the “effect in renormalizing the translational profile of the gene” value (gene SOX5 (ENSG00000134532)) was “+ (+ = 0.9 to 1.5)”. For the same molecule, the “effect in renormalizing the translational profile of the gene” value (gene SOX6 (ENSG00000110693)) was “− (− = <0.9)”, the “effect in renormalizing the translational profile of the gene” value (gene SPATA6 (ENSG00000132122)) was “− (− = <0.9)” and the “effect in renormalizing the translational profile of the gene” value (gene STAMBPL1 (ENSG00000138134)) was “+ (+ = 0.9 to 1.5)”. The “effect in renormalizing the translational profile of the gene” value (gene STS (ENSG00000101846)) was “− (− = <0.9)”, the “effect in renormalizing the translational profile of the gene” value (gene SYNE2 (ENSG00000054654)) was “− (− = <0.9)” and the “effect in renormalizing the translational profile of the gene” value (gene TAF1D (ENSG00000166012)) was “+ (+ = 0.9 to 1.5)”. For the same molecule, the “effect in renormalizing the translational profile of the gene” value (gene TDG (ENSG00000139372)) was “− (− = <0.9)”, the “effect in renormalizing the translational profile of the gene” value (gene TEN1 (ENSG00000257949)) was “− (− = <0.9)” and the “effect in renormalizing the translational profile of the gene” value (gene TET2 (ENSG00000168769)) was “− (− = <0.9)”. The “effect in renormalizing the translational profile of the gene” value (gene TET3 (ENSG00000187605)) was “− (− = <0.9)”, the “effect in renormalizing the translational profile of the gene” value (gene TGFBI (ENSG00000120708)) was “− (− = <0.9)” and the “effect in renormalizing the translational profile of the gene” value (gene THBS3 (ENSG00000169231)) was “− (− = <0.9)”. For the same molecule, the “effect in renormalizing the translational profile of the gene” value (gene THG1L (ENSG00000113272)) was “− (− = <0.9)”, the “effect in renormalizing the translational profile of the gene” value (gene TIMM9 (ENSG00000100575)) was “− (− = <0.9)” and the “effect in renormalizing the translational profile of the gene” value (gene TKT (ENSG00000163931)) was “− (− = <0.9)”. The “effect in renormalizing the translational profile of the gene” value (gene TMTC1 (ENSG00000133687)) was “+ (+ = 0.9 to 1.5)”, the “effect in renormalizing the translational profile of the gene” value (gene TOMM7 (ENSG00000196683)) was “− (− = <0.9)” and the “effect in renormalizing the translational profile of the gene” value (gene TOP2A (ENSG00000131747)) was “− (− = <0.9)”. For the same molecule, the “effect in renormalizing the translational profile of the gene” value (gene TPGS1 (ENSG00000141933)) was “− (− = <0.9)”, the “effect in renormalizing the translational profile of the gene” value (gene TPM2 (ENSG00000198467)) was “− (− = <0.9)” and the “effect in renormalizing the translational profile of the gene” value (gene TPT1 (ENSG00000133112)) was “− (− = <0.9)”. The “effect in renormalizing the translational profile of the gene” value (gene TRERF1 (ENSG00000124496)) was “− (− = <0.9)”, the “effect in renormalizing the translational profile of the gene” value (gene UBA52 (ENSG00000221983)) was “− (− = <0.9)” and the “effect in renormalizing the translational profile of the gene” value (gene UQCRB (ENSG00000156467)) was “− (− = <0.9)”. The “effect in renormalizing the translational profile of the gene” value (gene UTRN (ENSG00000152818)) was “− (− = <0.9)”, the “effect in renormalizing the translational profile of the gene” value (gene VIM (ENSG00000026025)) was “− (− = <0.9)” and the “effect in renormalizing the translational profile of the gene” value (gene ZNF581 (ENSG00000171425)) was “− (− = <0.9)”.

— patent publication US9993494B2, “Compositions and methods for treating fibrotic disease” (eFFECTOR Therapeutics, Inc., priority 2014, dated 2018)
